Test results reported in the METLIN SMRT retention time set (Domingo-Almenara et al. 2019).

Assay: gradient 5% acetonitrile 3 min, to 50% in 2 min, to 85% in 15 min, held 3 min, 100 µL/min
Settings: column: Zorbax Extend-C18 2.1 x 50 mm; eluents: water / acetonitrile, 0.1% formic acid
Outline: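 Using water and acetonitrile that each contained 0.1% formic acid, mixtures of ~100 pure standards were separated at 100 μL/min on a Zorbax Extend-C18 column (2.1 × 50 mm, 1.8 μm). The HPLC fed a quadrupole time-of-flight mass spectrometer working in positive and negative ionization mode, with dead and dwell volumes of 40 μL and 900 μL. Data were acquired over 3 months. Retention time was read from computationally picked adduct peaks after manual inspection of each.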

Structure (SMILES)	RP-LC retention time
Cc1noc(C)c1Cc1c(C(=O)NCCc2noc(C3CC3)n2)noc1C	774 s
OC1(c2ccccn2)CCOC2(CCN(Cc3cccc(F)c3F)CC2)C1 (centres undefined)	571 s
CCOc1ccccc1NC(=O)N1CCC([C@@H]2[C@H](OC)C(=O)N2C(C)C)CC1	846 s
CC(C)N1CCN(C(=O)c2ccc(-c3cccs3)nc2)CC1	588 s
CCN(Cc1ccccc1)C(=O)Cn1cnc2onc(C)c2c1=O	802 s
Cc1cc(C)cc(N2CCC(NC(=O)CC(C)C)C2=O)c1 (centres undefined)	814 s
CCN(CC)CCCn1c(C)cc2c(c1=O)C(c1ccccc1OC)C(C#N)=C(N)O2 (centres undefined)	626 s
CCn1ccc2c(cc(C(=O)Nc3cccc(C)c3C)n2C)c1=O	736 s
CCCS(=O)(=O)N1CCCC(Cn2c(C)nc3cccnc32)C1 (centres undefined)	572 s
CCOC(=O)CCNC(=O)N1CCOc2ccc(N(C)C)cc2C1	583 s
CCc1nc2cc(N3CCCC(C(=O)NCCN4CCOCC4)C3)cnc2nc1CC (centres undefined)	594 s
CCOc1ccc(NC(=O)c2c(C)oc3nc(C)nc(N4CCCC4)c23)cc1	788 s
O=C(/C=C/c1ccc(O)c(O)c1)c1ccc(O[C@@H]2O[C@H](CO)[C@@H](O)[C@H](O)[C@H]2O)c(O)c1O	641 s
COc1ccc(C(=O)N2CCn3c(nnc3C(C)C)C2)c(OC)n1	588 s
CCOc1ccc(CCNC(=O)C2CCCN2C(=O)OCc2ccccc2)cc1OCC (centres undefined)	890 s
COc1ccc(C(O)CN2CCN(c3ccccc3)CC2)cc1OC (centres undefined)	607 s
COCc1cc(=O)n(Cc2ccccc2C#N)c(N2CCCC2)n1	744 s
COc1ncc(C(=O)NCc2ccc(OC)c(OC)c2)cn1	638 s
CCCOc1ccc(CN2CCC3(CCC3O)CC2)cc1OC (centres undefined)	629 s

Structure (SMILES)	RP-LC retention time
CC1=C(C(=O)O)N2C(=O)C(NC(=O)[C@H](N)c3ccccc3)[C@H]2SC1 (some centres undefined)	627 s
CCCn1cc(C(=O)Nc2ccccc2CC)c2cccnc21	919 s
CCOc1ccccc1C(=O)Nc1nnc(SC(C)c2ccccc2)s1 (centres undefined)	1140 s
COc1ccc(Nc2c(-c3nc(C)no3)cnc3nc(C)ccc23)c(OC)c1	692 s
COCCCNC(=O)C1(C)CCC(=O)N1CCc1c[nH]c2ccccc12 (centres undefined)	668 s
CNC(=O)c1cc(C)n(C)n1	835 s
COC(=O)C(C)NC(=O)N1CCCN(C2=NS(=O)(=O)C(c3ccccc3)=C2C)CC1 (centres undefined)	715 s
CC1CCN(c2nc(C(=O)N3CCN(C(C)C)CC3)nc3c2cnn3C)CC1	604 s
CCOC(=O)C1CCN(c2cc3c(cc2NC(=O)C2CC2)n(C)c(=O)c(=O)n3C)CC1	758 s
COCCCNC(=O)Cn1c(=O)c2cccn2c2ccc(F)cc21	689 s
CN1C(=O)c2ccccc2C(C(=O)NCCN(Cc2ccco2)C2CCCC2)C1c1cccs1 (centres undefined)	674 s
CCC(C)NC(=O)C1CCCN(c2cnc3nccnc3c2)C1 (centres undefined)	608 s
CCOc1ccccc1NC(=O)CSc1nnc(Cc2ccccc2)n1-n1cccc1	948 s
CCC(=O)N1CCc2c(C(=O)O)cccc21	657 s
O=C(NCCCn1cccc1)C1COc2ccccc2O1 (centres undefined)	803 s
COc1ccc(C(=O)N2C[C@@H]3C[C@H]2C[C@@H]3NC(=O)c2cccs2)c(C)c1	741 s
NC(=O)CSc1nccn1Cc1cccs1	516 s
O=C(CNC(=O)c1cccs1)Nc1nc2ccccc2[nH]1	599 s

More lines, now with the values ahead:

RP-LC retention time	Structure (SMILES)
908 s	CCn1cc(S(=O)(=O)Nc2cc(Cl)ccc2OC)c2cccnc21
727 s	CCCc1nnc(NC(=O)C2CCN(C(=O)c3cccc(F)c3)CC2)s1
1170 s	COc1ccc(-c2noc(-c3nc(Cc4cccc(F)c4)no3)n2)cc1
613 s	Cc1ccccc1S(=O)(=O)Cc1ccc(C(=O)N2CCN(c3ccccn3)CC2)o1
655 s	O=C(Nc1ccccc1)N1CCCC(Cn2c(C3CC3)nc3cccnc32)C1 (centres undefined)
899 s	COc1cccc(Cc2nc(-c3ccc4c(c3)nc(C)c(=O)n4C)no2)c1
769 s	O=C1CCCc2cc(S(=O)(=O)N3CCC(C(=O)NC4CCCCCC4)CC3)ccc2N1
723 s	CN1C(=O)CC[C@]2(C(=O)N3CCN(c4ccc(F)cc4)CC3)CCCC[C@@H]12
854 s	COc1ccc(OC)c(S(=O)(=O)N2CCCC(C(=O)NCCc3ccccc3)C2)c1 (centres undefined)
752 s	O=C(c1ccc2ccccc2n1)N1CCN(c2cc(-c3cccs3)[nH]n2)CC1
764 s	Cc1cc(-c2ccc(S(=O)(=O)N3CCC(C(=O)NCc4ccccc4)CC3)o2)n[nH]1
723 s	Cc1ccccc1NC(=O)C1CCc2nc(N3CCOCC3)ncc2C1 (centres undefined)
1090 s	CC(C)Cn1c(=O)c2cc(C(=O)NC(C)c3ccccc3)nn2c2ccccc21 (centres undefined)
846 s	CSc1ccc(CNC(=O)C2CCN(c3nnc(-c4ccccc4)o3)CC2)cc1
863 s	COc1ccc(S(=O)(=O)N2CCC(C(=O)NCCc3csc(-c4cccs4)n3)CC2)cc1
1070 s	Cc1ccc(Nc2c(-c3ccccc3O)nc3ccc(Br)cn23)cc1
1030 s	CCCc1ccc(S(=O)(=O)N2CC=C(c3cn(C)c4ncccc34)CC2)cc1
810 s	Cn1nccc1C(=O)Nc1sc(-c2ccccc2)cc1C(N)=O
926 s	CCOc1ccc(NC(=O)CN2C(=O)CCc3cc(Br)ccc32)cc1
871 s	CC(C)N1C(=O)c2cccnc2Sc2cc(NC(=O)c3ccccc3Cl)ccc21
851 s	COc1ccc(-n2ccc(=O)c(-c3nc(-c4ccc(F)cc4)no3)n2)cc1
634 s	Cc1cnc(C)n1C1CCN(S(=O)(=O)c2ccccc2)CC1
837 s	Cc1ccc(Sc2nccnc2N2CCCC(C(=O)NCc3ccc(N(C)C)cc3)C2)cc1 (centres undefined)
974 s	CCOc1ccccc1NS(=O)(=O)c1c(C(=O)OC)sc2cccc(F)c12
1040 s	CCCN1C(=O)COc2ccc(-c3csc(NC(=O)c4ccc(OC)cc4)n3)cc21
1100 s	CCOc1ccccc1NC(=O)N1CCCC1c1nc(-c2ccc(F)cc2F)no1 (centres undefined)

RP-LC retention time	Structure (SMILES)
1090 s	COc1ccc(-c2noc(COC(=O)C3=CN(Cc4ccccc4)S(=O)(=O)N=C3C)n2)cc1
767 s	O=C(Nc1nnc(-c2ccccc2Cl)o1)c1cccc([N+](=O)[O-])c1
774 s	O=C(NCCc1ccc(Cl)cc1)C1CCN(C(=O)C2Sc3ccccc3NC2=O)CC1 (centres undefined)
825 s	COc1ccc(CSc2nnc3c(S(=O)(=O)N4CCCC4)cccn23)cc1F
655 s	CC1CCCC(NC(=O)Cn2nc(Cc3ccncc3)c3ccccc3c2=O)C1C (centres undefined)
633 s	Fc1cccc(CN2CCc3nc(N4CCN(c5ncccn5)CC4)ncc3C2)c1
780 s	CCN1CCCn2cc(S(=O)(=O)N(CC)c3ccccc3)cc2C1=O
863 s	O=C(Nc1ccc2c(c1)OCCO2)c1cc2n(n1)CCCN(Cc1ccc(F)cc1)C2=O
836 s	COc1ccccc1CNC(=O)Cn1c(=O)cc(-c2nc(C)no2)c2ccccc21
655 s	Cc1ccn2cc(-c3ccc(NC(=O)c4ccc([N+](=O)[O-])cc4)cc3)nc2n1
857 s	O=C(Nc1cccc(Br)c1)C1CCN(C(=O)C2Sc3ccccc3NC2=O)CC1 (centres undefined)
747 s	Cc1cccn2cc(-c3cccc(NS(=O)(=O)c4ccc(Cl)c(Cl)c4)c3)nc12
914 s	Cc1ccc(NS(=O)(=O)c2ccc3c(c2)C(=O)N(C)c2ncccc2O3)cc1
770 s	Cc1cc(F)ccc1NS(=O)(=O)c1cc(-c2[nH]ncc2C(=O)N2CCCCC2)oc1C
1180 s	O=S(=O)(c1cccc(Cl)c1)N1CCc2nc(-c3ccc(F)cc3)ncc2C1
833 s	CCCS(=O)(=O)N1CCc2c(c(CN(C(=O)c3ccccc3)c3ccccc3)nn2C)C1
847 s	O=C(Cc1cccc(F)c1)N1CCN(C(=O)c2cc(-c3cccnc3)n[nH]2)CC1
579 s	CCc1nc2cccnc2n1CCN1CCN(C(=O)Nc2ccc3c(c2)OCO3)CC1
797 s	CCOc1ccc2sc(NS(=O)(=O)c3ccc(N)cc3)nc2c1
1110 s	COc1ccc(CN2C=C(C(=O)OCc3noc(-c4ccc(OC)cc4)n3)C(C)=NS2(=O)=O)cc1
658 s	CCC(=O)Nc1ccc(CCc2nc3ccc(C(=O)NC(C)c4ccccc4)cc3[nH]2)cc1 (centres undefined)
757 s	O=C(Cn1nc2n(c1=O)CCCCC2)Nc1cccc(Br)c1
813 s	Cc1ccc(NC(=O)C2CCN(C(=O)c3ncn4c3COC(c3ccc(F)cc3)C4)CC2)c(F)c1 (centres undefined)
723 s	Cc1cccc(CNC(=O)C2CCc3nc(N4CCOCC4)ncc3C2)c1 (centres undefined)
902 s	Cc1cccc(S(=O)(=O)N2CCC(c3nc(C(=O)N4CCCC4)c(C)o3)CC2)c1
786 s	O=C(NCCOc1ccc(F)cc1)c1ccc2nsnc2c1
